# Test results: patent US20100015050A1, “PEG AND TARGETING LIGANDS ON NANOPARTICLE SURFACE” (WAYNE STATE UNIVERSITY, priority 2006, published 2010)
# How the values were obtained:
# [1] = system: NCl/ADR-RES cells; test: nanoparticle uptake/retention and paclitaxel accumulation in cells (HPLC); assay type: cell-based; settings: inhibition of P-gp by verapamil
# Method: NCl/ADR-RES cells were plated in 24-well plates at a density of 50,000 cells/well/1 mL. […] The medium was changed on day 2 and every other day thereafter, and no further dose of drug was added. Cells were harvested at different time intervals, and lysed using cell culture lysis reagent (Promega).
# In order to verify that differences in drug accumulation are not due to differences in nanoparticle uptake/retention in cells, the inventors labeled nanoparticles with 6-coumarin, and followed the cell uptake and retention of nanoparticles and paclitaxel in NCl/ADR-RES cells.
# [2] = system: NCl/ADR-RES cells; test: MTS cytotoxicity in drug-resistant, P-gp overexpressing cells; assay type: cell-based; settings: paclitaxel 100 nM in solution or in nanoparticles, no verapamil
# Method: (§1) Drug sensitive (MCF-7) and drug-resistant (NCl/ADR-RES) cells were plated in 96-well plates at a density of 5000 cells/well/0.1 mL. Cells were then treated with paclitaxel (Pac) in solution (100 nM) or equivalent in nanoparticles (NP). […] Untreated cells and cells treated with empty nanoparticles were used as controls. Cytotoxicity was followed using a standard MTS assay (see Methods). […] Data as mean±SD, n=6 wells. * P<0.05.
# NCl/ADR-RES cells were plated in 96-well plates at a density of 5000 cells/well/0.1 mL. Cells were then treated with paclitaxel (Pac, 100 nM) in nanoparticles (NP). […] Untreated cells were used as controls. Cytotoxicity was followed as a function of time using a standard MTS assay. The medium was changed on day 2 and every other day thereafter, and no further dose of drug was added.
# Drug-resistant (NCl/ADR-RES) cells were plated in 96-well plates at a density of 5000 cells/well/0.1 mL. Cells were then treated with dual-agent nanoparticles releasing 0.3 ng/day/8 μg siRNA and 7 ng/day/8 μg paclitaxel. Cells treated with non-targeted (scrambled) siRNA and untreated cells were used as controls. Cytotoxicity was followed using a standard MTS assay. The medium was changed on day 2 and every other day thereafter, and no further dose of drug was added. Data as mean±SD, n=6 wells. * P<0.05 compared to controls. […]
# [3] = system: MCF-7 xenografts; test: tumor growth and survival after single-dose paclitaxel treatment; assay type: in vivo; settings: 400 μg paclitaxel/animal, nude mice
# From the text: Effect of a single-dose paclitaxel treatment on tumor growth was investigated in nude mice bearing MCF-7 xenografts.
# [4] = system: MCF-7 cells; test: MTS cytotoxicity of paclitaxel treatments in drug-sensitive cells; assay type: cell-based; settings: paclitaxel 100 nM in solution or equivalent in nanoparticles; compared to untreated cells
# Method: as §1
# The inventors initially investigated the efficacy of paclitaxel encapsulated in nanoparticles in drug-sensitive MCF-7 cells.
# [5] = system: vascular smooth muscle cells; test: MTS cytotoxicity of dexamethasone formulations; assay type: cell-based; settings: nanoparticles 600 μg/mL or drug solution 25 μg/mL, single dose
# Method: Nanoparticle formulations with different drug release rates were formulated by emulsion solvent evaporation technique. […] Data represented as mean±SD, n=3. The two formulations were investigated for cytotoxicity in vascular smooth muscle cells. Cells were plated in 96-well plates at a density of 5000 cells/well/0.1 mL. A nanoparticle suspension prepared in regular serum-containing growth medium (600 μg/mL, 0.1 mL) was added to each well. Drug solution in growth medium (25 μg/mL) was also added to some of the wells. Untreated cells were used as controls. Cytotoxicity was determined using a standard MTS assay. The medium was changed on day 2 and every other day thereafter, and no further dose of drug was added. Data as mean±SD, n=6. […] Data represented as mean±SEM, n=3. Cells were plated at 100,000 cells/well/2 ml in 6-well plates. Drug encapsulated in nanoparticles (600 μg of nanoparticles/ml, 2 ml) or in solution (25 μg/ml, 2 ml) was added to each well. Medium was changed on day 2 and every other day thereafter, and no further dose of the drug was added.
structure (smiles),measurement,setting,value
COc1ccc(CCN(C)CCCC(C#N)(c2ccc(OC)c(OC)c2)C(C)C)cc1OC (stereo not drawn) [verapamil],effect on uptake or retention of nanoparticles,[1],did not significantly increase the uptake or retention of nanoparticles
CC(=O)O[C@H]1C(=O)[C@@]2(C)[C@H]([C@H](OC(=O)c3ccccc3)[C@]3(O)C[C@H](OC(=O)[C@H](O)[C@@H](NC(=O)c4ccccc4)c4ccccc4)C(C)=C1C3(C)C)[C@]1(OC(C)=O)CO[C@@H]1C[C@@H]2O [paclitaxel],effect on the viability of cells,[2],no significant effect on the viability of cells
same,effect on tumor growth,[3],only marginally effective
same,inhibition of cell proliferation,[4],marginal but significant (P<0.05) inhibition of cell proliferation
C[C@@H]1C[C@H]2[C@@H]3CCC4=CC(=O)C=C[C@]4(C)[C@@]3(F)[C@@H](O)C[C@]2(C)[C@@]1(O)C(=O)CO [dexamethasone],cytotoxicity / inhibition of cell proliferation,[5],transient cytotoxicity
same,duration of cytotoxicity,[5],up to 5 days
